One data set in a line: physchem. It is filed as physicochemical. The method, then: The tests were carried out in three of the most common solvents used in biological applications such as: ultrapure water; DPBS (Dulbecco's Phosphate Buffered Saline), i.e., a saline buffer containing potassium chloride (KCl), monobasic potassium phosphate (KH2PO4), sodium chloride (NaCl) and dibasic sodium phosphate (Na2HPO4-7H2O) and finally in an organic solvent such as dimethylsulfoxide (DMSO).

Data set [1] is classed as physicochemical. The method, then: The structural and conformational characterization of the RiLK1 peptide was assessed by investigating its secondary structure by ^1H NMR spectroscopy in H2O and in a micellar solution of SDS at a concentration of 150 mM to mimic the condition of the bacterial cell membrane.
In fact, the representative structures of the RiLK1 peptide in water show a random orientation of both polar and hydrophobic amino acid side chains.
The helical structure appears well defined and stabilized by hydrophobic interactions of amino acid residues located on the opposite face. It is important to note that, in this arrangement, all the charged side chains are iso-oriented and well prone to interact with the negatively charged surface of the SDS micelles. Furthermore, the two tryptophan residues within the RiLK1 sequence are located at an optimal distance for their mutual stacking, thus contributing to the stabilization of the helix. It should be pointed out that the ^1H NMR spectra of the peptide IDR-1018-K6 (described in patent application WO2019012158) could not be acquired in the presence of micellar solutions of SDS since it is not soluble at the concentrations required to carry out these assays. […] Therefore, it is possible to assert that the NMR analysis in the presence of SDS has shown that the RiLK1 peptide of the present invention is capable of adopting the helix conformation, whereas the IDR-1018-K6 peptide (object of patent WO2019012158) has poor solubility and a heterogeneous system not suitable for NMR structural characterization (Table 2).

In another data set the test system is S. aureus. It is filed as cell-based, Staphylococcus aureus. The method, then: (§1) The evaluation of the Minimum Bactericidal Concentration (MBC), i.e., the lowest concentration of antimicrobial agent capable of 99.9% inhibition of bacterial growth on plates, was carried out as described in Bílikova et al, (2015, Peptides 68:190-196). […] It should be noted that the peptide object of the present invention is more powerful and efficient than the peptide IDR-1018-K6 (described in patent application WO2019012158) against the pathogenic bacteria L. monocytogenes and S. typhimurium, with bactericidal concentration values 4-fold and 7-fold lower, respectively, compared to those shown by IDR-1018-K6.

For another data set, the system named is L. monocytogenes (LM2). The data set is classed as cell-based, Listeria monocytogenes. Conditions: LM2. The method, then:
as §1

The next data set relates to S. typhimurium. It is filed as cell-based, Salmonella typhimurium. As for the experimental part:
as §1

The subject of another data set is E. coli. It is filed as cell-based, Escherichia coli. As for the experimental part:
as §1

Data set [2] has as its system Aspergillus brasiliensis (ATCC 9341). Briefly: antifungal activity, plate count, MFC. It is filed as cell-based. Conditions: A. brasiliensis. The method, then:
The antifungal activity of the RiLK1 peptide was determined against Aspergillus brasiliensis. For this purpose, a stock culture was prepared in which 10^5 CFUs of A. brasiliensis were inoculated in 10 ml of buffered peptone water. A reference strain (ATCC 9341) was used for this fungal species. The culture was incubated for 6 h at 37° C. with the RiLK1 peptide at 25 μM concentrations. At the same time, control samples were incubated without adding the peptide. 100 μl of the samples thus prepared were seeded on DG18 plates (Dichloran 18% Glycerol Agar-ISO 21527-2) and incubated at 25° C. for 7 days. All experimental conditions investigated used the plate count method to estimate the fungicidal activity of the peptide. Specifically, the numbers of colonies grown on agar plates seeded with the fungal suspensions in the absence or presence of the individual peptide dilutions were counted and compared. The standard deviations of the triplicate incubations of each plate were determined using statistical software. The evaluation of the Minimum Fungicidal Concentration (MFC), i.e., the lowest concentration of antifungal agent capable of 99.9% inhibition of fungal growth on plates, was carried out as described in Bílikova et al, (2015, Peptides 68:190-196).

The subject of data set [3] is Candida albicans (ATCC 14053). As to the kind of experiment: activity against yeast, plate count, MFC. It is filed as cell-based. Conditions: C. albicans. As for the experimental part: The inhibitory activity of the RiLK1 peptide was determined against the yeast Candida albicans. A stock culture was prepared in which 10^5 CFUs of C. albicans were inoculated in 10 ml of buffered peptone water. A reference strain (ATCC 14053) was used for this species. The culture was incubated for 6 h at 37° C. with the RiLK1 peptide at 25 μM concentrations. At the same time, control samples were incubated without adding the peptide. 100 μl of the samples thus prepared were seeded on DG18 plates (Dichloran 18% Glycerol Agar-ISO 21527-2) and incubated at 25° C. for 7 days. All experimental conditions investigated used the plate count method to estimate the antimycotic activity of the peptide. Specifically, the numbers of colonies grown on agar plates seeded with the cultures in the absence or presence of the individual peptide dilutions were counted and compared. The standard deviations of the triplicate incubations of each plate were determined using statistical software. The evaluation of the Minimum Fungicidal Concentration (MFC), i.e., the lowest concentration of antifungal agent capable of 99.9% inhibition of fungal growth on plates, was carried out as described in Bílikova et al, (2015, Peptides 68:190-196).

Converted amounts (≈) assume the structure as drawn. Where two headings read alike, the source gives them in different places. Where a SMILES comes first, the peptide text is derived from it. Where no end group is shown, it is not given here.

Take `CC[C@@H](C)[C@@H](NC(=O)[C@@H](CCCNC(=N)N)NC(=O)[C@H](NC(=O)[C@@H](CCCCN)NC(=O)[C@H](NC(=O)[C@H](NC(=O)[C@@H](CC(C)C)NC(=O)[C@@H](CCCNC(=N)N)NC(=O)[C@H](N)C(C)C)[C@H](C)CC)C(C)C)C(C)C)C(=O)N[C@H](Cc1c[nH]c2ccccc12)C(=O)N[C@H](CCCNC(=N)N)C(=O)N[C@H](CCCNC(=N)N)C(N)=O` [IDR-1018-K6 (D)] (HELM PEPTIDE1{[dV].[dR].[dL].[dI].[dV].[dK].[dV].[dR].[dI].[dW].[dR].[dR].[am]}$$$$V2.0; N-terminus and C-terminus assumed): in “physchem”, the Solubility limit is 0 µg/mL. This compound also yielded a solubility in “physchem” (Solubility limit) of 10000 µg/mL (≈ 6.28 mM). Also, in “physchem” (pH 7.1), the Outcome result is “NOT dissolved” and the Solubility limit was 0 µg/mL.

For `CC[C@@H](C)[C@@H](NC(=O)[C@@H](CCCNC(=N)N)NC(=O)[C@H](NC(=O)[C@@H](Cc1c[nH]c2ccccc12)NC(=O)[C@@H](CCCCN)NC(=O)[C@@H](CC(C)C)NC(=O)[C@H](N)CCCNC(=N)N)C(C)C)C(=O)N[C@H](Cc1c[nH]c2ccccc12)C(=O)N[C@H](CCCNC(=N)N)C(=O)N[C@H](CCCNC(=N)N)C(N)=O` [RiLK1(D), RLKWVRIWRR] (HELM PEPTIDE1{[dR].[dL].[dK].[dW].[dV].[dR].[dI].[dW].[dR].[dR].[am]}$$$$V2.0; N-terminus assumed), the Outcome result in “physchem” and in “physchem” (pH 7.1) was “Dissolved” throughout. The compound further gave a Solubility limit in “physchem” of 10000 µg/mL (≈ 6.81 mM). Besides, the solubility in the data set “physchem” (Solubility limit) was found to be 10000 µg/mL (≈ 6.81 mM); in the data set “physchem” (pH 7.1, Solubility limit), 10000 µg/mL (≈ 6.81 mM).

In the case of RLKWVRIWRR-NH2 [RiLK1(L), RLKWVRIWRR], the Outcome entry in “physchem” and in “physchem” (pH 7.1) was “Dissolved” in each case. Also, the Solubility limit in “physchem” was found to be 10000 µg/mL. Moreover, the solubility in the data set “physchem” (Solubility limit) was 10000 µg/mL; in the data set “physchem” (pH 7.1, Solubility limit), 10000 µg/mL.

For the compound “VRLIVKVRIWRR-NH2 (C-terminus assumed) [IDR-1018-K6(L)]”, the Outcome result in the data set “physchem” and in “physchem” (pH 7.1) was “Dissolved” in each case. This compound also returned a Solubility limit in the data set “physchem” of 10000 µg/mL. In addition, the solubility in the data set “physchem” (Solubility limit) is 5000 µg/mL; in “physchem” (pH 7.1, Solubility limit), 5000 µg/mL.

In the case of “VRLIVKVRIWRR-NH2 (C-terminus assumed) [IDR-1018-K6]”, the results for the solubility entry (in “physchem”; in the data set “physchem” (Solubility limit); in data set [1]) were “totally insoluble”, no more than 5000 µg/mL and 1000 µM, respectively. In addition, the “peptide concentration in NMR sample (solubility)” value in data set [1] (pH 4.4) was “insoluble”. The MBC with S. aureus came out at 15 µM; against L. monocytogenes (LM2) it was 8 µM; against S. typhimurium it was 25 µM; in the data set on E. coli, 2 µM. For the same compound, the “Drop Log CFU/ml” value is on record as 0 Log CFU/ml in data set [2] (25 μM, 6 h) and 1.0 Log CFU/ml in data set [3] (25 μM, 6 h). Besides, the “post-treatment decrease in the fungal load” value in data set [2] (25 μM, 6 h) was 0 Log; in data set [3] (25 μM, 6 h) it was 1.0 Log. Moreover, the “antifungal activity in words” value in data set [2] (same experimental conditions) is given as “not active”. The “antimycotic activity in words” value in data set [3] (same experimental conditions) is reported as “low efficiency”.
